Our source for the Stability and IC50 values is ChEMBL document CHEMBL5634092, “Design, synthesis, and biological evaluation of novel HDAC/CD13 dual inhibitors for the treatment of cancer” (Eur J Med Chem, 2023).

Data set [1] is described as follows: Stability of compound in artificial gastric juice at 0.4 mg/mL measured after 24 hrs by HPLC analysis. It is filed as ADME. Particulars: simulated gi fluid.
A further data set deals with Aminopeptidase N (Homo sapiens, UniProt P15144). The data set is described as follows: Inhibition of human CD13 using L-leucine-p-nitroanilide as substrate incubated for 30 mins by microplate reader analysis.
Data set [2] addresses T1, Protein deacetylase HDAC6 (Homo sapiens, UniProt Q9UBN7).
T1 sequence (Q9UBN7 whole entry): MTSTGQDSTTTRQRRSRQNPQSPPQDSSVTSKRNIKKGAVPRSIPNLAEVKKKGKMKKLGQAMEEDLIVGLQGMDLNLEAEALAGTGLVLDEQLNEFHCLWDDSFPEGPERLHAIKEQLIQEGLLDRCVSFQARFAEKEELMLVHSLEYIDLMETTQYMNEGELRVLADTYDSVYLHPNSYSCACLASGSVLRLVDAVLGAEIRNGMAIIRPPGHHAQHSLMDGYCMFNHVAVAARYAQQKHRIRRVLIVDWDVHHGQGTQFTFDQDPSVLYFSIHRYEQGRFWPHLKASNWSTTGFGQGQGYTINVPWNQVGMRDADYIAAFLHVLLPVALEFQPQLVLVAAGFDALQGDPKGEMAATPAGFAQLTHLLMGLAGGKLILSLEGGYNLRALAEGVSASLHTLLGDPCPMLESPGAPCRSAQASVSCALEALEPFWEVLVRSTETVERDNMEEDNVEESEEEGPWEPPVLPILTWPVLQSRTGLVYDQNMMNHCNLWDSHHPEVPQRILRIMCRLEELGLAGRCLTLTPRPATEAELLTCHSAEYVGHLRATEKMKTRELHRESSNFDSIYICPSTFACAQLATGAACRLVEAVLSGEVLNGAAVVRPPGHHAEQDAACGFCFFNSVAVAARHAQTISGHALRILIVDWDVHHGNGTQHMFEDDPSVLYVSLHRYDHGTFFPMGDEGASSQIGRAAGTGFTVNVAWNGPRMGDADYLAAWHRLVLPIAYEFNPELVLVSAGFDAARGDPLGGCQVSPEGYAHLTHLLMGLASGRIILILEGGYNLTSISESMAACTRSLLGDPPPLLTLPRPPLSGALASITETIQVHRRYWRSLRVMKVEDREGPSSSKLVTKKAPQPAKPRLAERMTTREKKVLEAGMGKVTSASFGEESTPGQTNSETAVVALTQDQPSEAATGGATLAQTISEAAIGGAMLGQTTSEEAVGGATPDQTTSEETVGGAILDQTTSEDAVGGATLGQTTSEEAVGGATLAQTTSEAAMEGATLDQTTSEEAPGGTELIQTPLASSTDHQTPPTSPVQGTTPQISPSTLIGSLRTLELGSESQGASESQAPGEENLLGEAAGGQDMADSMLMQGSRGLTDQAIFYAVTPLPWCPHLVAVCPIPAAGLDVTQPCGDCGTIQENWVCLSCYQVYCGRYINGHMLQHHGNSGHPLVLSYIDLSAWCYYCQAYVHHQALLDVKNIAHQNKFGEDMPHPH
Description: Inhibition of human HDAC6 using Boc-Lys (acetyl)-AMC as substrate incubated for 1 hr followed by substrate addition and further incubated for 2 hrs by fluorescence assay.

Data set [3] can be described thus: Stability of compound in artificial intestinal juice at 0.4 mg/mL measured after 24 hrs by HPLC analysis. Format: ADME. As to conditions: simulated gi fluid.
In data set [4] the target is T2, Polyamine deacetylase HDAC10 (Homo sapiens, UniProt Q969S8).
T2 sequence (Q969S8 whole entry): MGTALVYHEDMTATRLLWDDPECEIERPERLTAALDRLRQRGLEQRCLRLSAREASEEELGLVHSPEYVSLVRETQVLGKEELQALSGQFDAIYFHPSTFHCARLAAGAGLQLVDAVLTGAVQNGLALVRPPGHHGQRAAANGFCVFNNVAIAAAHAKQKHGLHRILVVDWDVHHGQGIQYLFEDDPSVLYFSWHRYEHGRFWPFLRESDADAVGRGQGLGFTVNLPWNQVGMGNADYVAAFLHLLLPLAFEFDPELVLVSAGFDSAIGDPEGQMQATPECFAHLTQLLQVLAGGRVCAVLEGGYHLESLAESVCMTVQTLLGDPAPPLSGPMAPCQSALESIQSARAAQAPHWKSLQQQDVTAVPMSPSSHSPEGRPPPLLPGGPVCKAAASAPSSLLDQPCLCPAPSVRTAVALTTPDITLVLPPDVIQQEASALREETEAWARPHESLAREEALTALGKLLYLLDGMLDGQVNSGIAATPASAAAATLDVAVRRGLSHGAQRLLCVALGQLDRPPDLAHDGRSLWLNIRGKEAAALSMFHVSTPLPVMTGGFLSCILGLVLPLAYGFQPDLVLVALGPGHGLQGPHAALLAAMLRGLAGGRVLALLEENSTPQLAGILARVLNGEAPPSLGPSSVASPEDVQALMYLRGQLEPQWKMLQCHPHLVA
Description: Inhibition of human HDAC10 using Boc-Lys (tri-fluoroacetyl)-AMC as substrate incubated for 1 hr followed by substrate addition and further incubated for 2 hrs by fluorescence assay.

In another data set the target is Histone deacetylase 5 (Homo sapiens, UniProt Q9UQL6). The data set is described as follows: Inhibition of human HDAC5 using Boc-Lys (tri-fluoroacetyl)-AMC as substrate incubated for 1 hr followed by substrate addition and further incubated for 2 hrs by fluorescence assay.
Sequence of Histone deacetylase 5 (Q9UQL6 whole entry): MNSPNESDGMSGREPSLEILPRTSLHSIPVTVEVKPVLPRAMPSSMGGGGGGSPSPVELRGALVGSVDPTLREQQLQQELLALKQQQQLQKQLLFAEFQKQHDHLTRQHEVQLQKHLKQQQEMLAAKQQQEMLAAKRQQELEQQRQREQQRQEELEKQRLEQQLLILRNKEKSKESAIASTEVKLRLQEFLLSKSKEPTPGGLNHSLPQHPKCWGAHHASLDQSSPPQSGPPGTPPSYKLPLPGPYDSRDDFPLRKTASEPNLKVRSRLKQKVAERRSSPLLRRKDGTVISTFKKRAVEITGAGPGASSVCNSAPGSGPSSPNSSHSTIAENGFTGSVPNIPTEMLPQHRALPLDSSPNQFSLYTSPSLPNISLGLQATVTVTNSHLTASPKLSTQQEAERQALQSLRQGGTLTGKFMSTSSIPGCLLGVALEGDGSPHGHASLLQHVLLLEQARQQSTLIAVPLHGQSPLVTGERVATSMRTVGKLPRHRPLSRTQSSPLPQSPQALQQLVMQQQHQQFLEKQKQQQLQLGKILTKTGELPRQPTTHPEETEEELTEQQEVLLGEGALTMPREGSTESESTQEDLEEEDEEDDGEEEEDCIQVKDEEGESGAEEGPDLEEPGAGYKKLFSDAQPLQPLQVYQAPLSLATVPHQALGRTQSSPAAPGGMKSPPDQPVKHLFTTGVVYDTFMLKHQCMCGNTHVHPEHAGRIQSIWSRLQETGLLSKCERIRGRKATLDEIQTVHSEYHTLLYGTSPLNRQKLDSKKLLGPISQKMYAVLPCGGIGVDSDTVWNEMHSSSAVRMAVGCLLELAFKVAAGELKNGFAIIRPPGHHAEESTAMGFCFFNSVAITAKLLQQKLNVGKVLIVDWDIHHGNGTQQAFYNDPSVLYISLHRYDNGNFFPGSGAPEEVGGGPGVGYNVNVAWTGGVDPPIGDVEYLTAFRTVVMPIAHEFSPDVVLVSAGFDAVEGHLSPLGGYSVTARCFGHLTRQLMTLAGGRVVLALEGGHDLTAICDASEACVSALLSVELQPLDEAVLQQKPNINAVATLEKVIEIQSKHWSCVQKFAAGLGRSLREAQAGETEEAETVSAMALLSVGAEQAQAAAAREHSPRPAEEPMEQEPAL

Sequence of Aminopeptidase N (P15144 whole entry): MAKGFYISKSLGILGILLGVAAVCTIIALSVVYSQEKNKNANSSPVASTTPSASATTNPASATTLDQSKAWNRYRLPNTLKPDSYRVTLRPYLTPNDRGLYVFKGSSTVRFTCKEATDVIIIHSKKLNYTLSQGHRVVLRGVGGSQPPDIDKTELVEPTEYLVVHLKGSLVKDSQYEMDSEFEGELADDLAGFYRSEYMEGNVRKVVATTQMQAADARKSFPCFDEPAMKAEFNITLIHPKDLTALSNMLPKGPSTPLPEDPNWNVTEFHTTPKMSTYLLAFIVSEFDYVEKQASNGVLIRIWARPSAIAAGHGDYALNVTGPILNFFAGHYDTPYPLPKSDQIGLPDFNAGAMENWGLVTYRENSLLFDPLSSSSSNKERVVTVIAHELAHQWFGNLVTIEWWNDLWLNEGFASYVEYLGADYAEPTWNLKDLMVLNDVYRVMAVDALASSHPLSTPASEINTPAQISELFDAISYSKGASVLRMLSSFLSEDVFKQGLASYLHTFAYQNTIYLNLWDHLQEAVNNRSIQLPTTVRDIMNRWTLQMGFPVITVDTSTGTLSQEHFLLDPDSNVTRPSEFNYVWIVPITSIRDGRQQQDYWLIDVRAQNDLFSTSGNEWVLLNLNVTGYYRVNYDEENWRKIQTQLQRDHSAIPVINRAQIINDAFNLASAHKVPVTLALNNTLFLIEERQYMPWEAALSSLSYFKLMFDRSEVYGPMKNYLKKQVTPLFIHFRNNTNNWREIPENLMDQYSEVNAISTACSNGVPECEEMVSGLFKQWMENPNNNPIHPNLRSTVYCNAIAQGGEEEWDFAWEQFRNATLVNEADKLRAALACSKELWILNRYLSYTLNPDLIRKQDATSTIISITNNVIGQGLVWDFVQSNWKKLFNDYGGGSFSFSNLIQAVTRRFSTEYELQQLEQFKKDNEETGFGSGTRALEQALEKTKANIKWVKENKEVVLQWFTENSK

Take `CCCNNC(=O)c1ccc(CNC(=O)[C@H](CC(C)C)NC(=O)[C@@H](O)[C@H](N)Cc2ccccc2)cc1.Cl`: the Stability result in data set [1] and in data set [3] was “Stable” in each case. In addition, the IC50 (commonly the concentration needed to halve the response being measured) was 0.34 µM on Aminopeptidase N, greater than 10 µM in data set [2], greater than 10 µM in data set [4] and greater than 10 µM against Histone deacetylase 5.
